# Read-outs that look alike come from different tables or passages of the source.
# Experiments:
# Zymoseptoria tritici = assay: Leaf Blotch of Wheat (SEPTTR) fungicidal activity; format: in vivo; details: wheat leaf blotch; for pest or weed control at 121.5 g/ha: Low Volume application, 121.5 g/H; for pest or weed control at 100 ppm: High Volume application
# Procedure: Example A: Evaluation of Fungicidal Activity: Leaf Blotch of Wheat (Zymoseptoria tritici; Bayer Code […]) Technical grades of materials were dissolved in acetone, which were then mixed with nine volumes of H2O containing 110 ppm Triton X-100. The fungicide solutions were applied onto wheat seedlings using an automated booth sprayer to run-off. All sprayed plants were allowed to air dry prior to further handling. All fungicides were evaluated using the aforementioned method for their activity vs. all target diseases, unless stated otherwise. Wheat leaf blotch and brown rust activity were also evaluated using track spray applications, in which case the fungicides were formulated as EC formulations, containing 0.1% Trycol 5941 in the spray solutions. Wheat plants (variety Yuma) were grown from seed in a greenhouse in 50% mineral soil/50% soil-less Metro mix until the first leaf was fully emerged, with 7-10 seedlings per pot. These plants were inoculated with an aqueous spore suspension of Zymoseptoria tritici either prior to or after fungicide treatments. After inoculation the plants were kept in 100% relative humidity (one day in a dark dew chamber followed by two to three days in a lighted dew chamber at 20° C.) to permit spores to germinate and infect the leaf. The plants were then transferred to a greenhouse set at 20° C. for disease to develop. When disease symptoms were fully expressed on the 1st leaves of untreated plants, infection levels were assessed on a scale of 0 to 100 percent disease severity. Percent disease control was calculated using the ratio of disease severity on treated plants relative to untreated plants.
# Puccinia triticina = assay: Wheat Brown Rust (PUCCRT) fungicidal activity; format: in vivo; details: for pest or weed control at 121.5 g/ha: Low Volume application, 121.5 g/H
# Procedure: Technical grades of materials were dissolved in acetone, which were then mixed with nine volumes of H2O containing 110 ppm Triton X-100. The fungicide solutions were applied onto wheat seedlings using an automated booth sprayer to run-off. All sprayed plants were allowed to air dry prior to further handling. All fungicides were evaluated using the aforementioned method for their activity vs. all target diseases, unless stated otherwise. Wheat leaf blotch and brown rust activity were also evaluated using track spray applications, in which case the fungicides were formulated as EC formulations, containing 0.1% Trycol 5941 in the spray solutions. Wheat plants (variety Yuma) were grown from seed in a greenhouse in 50% mineral soil/50% soil-less Metro mix until the first leaf was fully emerged, with 7-10 seedlings per pot. These plants were inoculated with an aqueous spore suspension of Zymoseptoria tritici either prior to or after fungicide treatments. After inoculation the plants were kept in 100% relative humidity (one day in a dark dew chamber followed by two to three days in a lighted dew chamber at 20° C.) to permit spores to germinate and infect the leaf. The plants were then transferred to a greenhouse set at 20° C. for disease to develop. When disease symptoms were fully expressed on the 1st leaves of untreated plants, infection levels were assessed on a scale of 0 to 100 percent disease severity. Percent disease control was calculated using the ratio of disease severity on treated plants relative to untreated plants. Example B: Evaluation of Fungicidal Activity: Wheat Brown Rust (Puccinia triticina; Bayer Code PUCCRT) Wheat plants (variety Yuma) were grown from seed in a greenhouse in 50% mineral soil/50% soil-less Metro mix until the first leaf was fully emerged, with 7-10 seedlings per pot. These plants were inoculated with an aqueous spore suspension of Puccinia triticina either prior to or after fungicide treatments. After inoculation the plants were kept in a dark dew room at 22° C. with 100% relative humidity overnight to permit spores to germinate and infect the leaf. The plants were then transferred to a greenhouse set at 24° C. for disease to develop. Fungicide formulation, application and disease assessment followed the procedures as described in the Example A.
# [1] = 24 h, 1 day protectant, read-out: SEPTTR disease control, 1DP (1 Day Protectant)
# [2] = 72 h, 3 day curative, read-out: SEPTTR disease control, 3DC (3 Day Curative)
# [3] = 24 h, 1 day protectant, read-out: PUCCRT disease control, 1DP (1 Day Protectant)
# [4] = 72 h, 3 day curative, read-out: PUCCRT disease control, 3DC (3 Day Curative)
SMILES,pest or weed control at 121.5 g/ha (Zymoseptoria tritici; [1]),pest or weed control at 121.5 g/ha (Zymoseptoria tritici; [2]),pest or weed control at 121.5 g/ha (Puccinia triticina; [3]),pest or weed control at 121.5 g/ha (Puccinia triticina; [4]),pest or weed control at 100 ppm (Zymoseptoria tritici; [1]),pest or weed control at 100 ppm (Zymoseptoria tritici; [2]),"pest or weed control at 100 ppm (Puccinia triticina; 24 h, High Volume application, 100 ppm, 1 day protectant, read-out: PUCCRT disease control, 1DP (1 Day Protectant))"
CCC[C@H]1CCCC[C@H](NC(=O)c2nccc(OC)c2OCOC(C)=O)C(=O)O[C@@H](C)[C@@H]1OC(=O)C(C)C [Compound 31],< 80%,< 80%,> 80%,< 80%,–,–,–
COc1ccc(CO[C@H]2[C@H](C)OC(=O)[C@@H](NC(=O)c3nccc(OC)c3OCOC(C)=O)CCOC[C@@H]2OCc2ccc(OC)cc2)cc1 [Compound 32],–,< 80%,–,< 80%,–,–,–
COc1ccnc(C(=O)N[C@H]2CCCC[C@@H]3OC(C)(C)O[C@H]3[C@H](C)OC2=O)c1OCOC(C)=O [Compound 33],< 80%,> 80%,> 80%,> 80%,–,–,–
COc1ccnc(C(=O)N[C@H]2CCCC[C@H](OC)[C@@H](OC3CCCC3)[C@H](C)OC2=O)c1OCOC(C)=O [Compound 34],< 80%,> 80%,> 80%,> 80%,–,–,–
COc1ccnc(C(=O)N[C@H]2CCCC[C@H](Oc3ccccc3)[C@@H](OC3CCCC3)[C@H](C)OC2=O)c1OCOC(C)=O [Compound 36],< 80%,< 80%,> 80%,> 80%,–,–,–
CCCOC(=O)O[C@H]1CCCC[C@H](NC(=O)c2nccc(OC)c2OCOC(C)=O)C(=O)O[C@@H](C)[C@@H]1OCC(C)C [Compound 38],> 80%,> 80%,> 80%,< 80%,–,–,–
COc1ccnc(C(=O)N[C@H]2CCOC[C@H](OC)[C@@H](Oc3ccccc3)[C@H](C)OC2=O)c1OCOC(C)=O [Compound 40],> 80%,> 80%,> 80%,> 80%,–,–,–
CCCO[C@H]1COCC[C@H](NC(=O)c2nccc(OC)c2OCOC(C)=O)C(=O)O[C@@H](C)[C@@H]1Oc1ccccc1 [Compound 41],> 80%,> 80%,> 80%,> 80%,–,–,–
CCCO[C@H]1[C@H](C)OC(=O)[C@@H](NC(=O)c2nccc(OC)c2OCOC(C)=O)CCOC[C@@H]1Oc1ccccc1 [Compound 42],< 80%,< 80%,> 80%,< 80%,–,–,–
COc1ccnc(C(=O)N[C@H]2CCOC[C@H](OC(=O)C(C)C)[C@@H](Oc3ccccc3)[C@H](C)OC2=O)c1OCOC(C)=O [Compound 44],< 80%,< 80%,> 80%,> 80%,–,–,–
COc1ccnc(C(=O)N[C@H]2CCOC[C@H](OCC(C)C)[C@@H](Oc3ccccc3)[C@H](C)OC2=O)c1OCOC(C)=O [Compound 45],> 80%,> 80%,> 80%,> 80%,–,–,–
COc1ccnc(C(=O)N[C@H]2CCOC[C@H](Oc3ccccc3)[C@@H](OCC(C)C)[C@H](C)OC2=O)c1OCOC(C)=O [Compound 46],> 80%,< 80%,> 80%,< 80%,–,–,–
COc1ccnc(C(=O)N[C@H]2CCOC[C@H](Oc3ccccc3)[C@@H](Oc3ccccc3)[C@H](C)OC2=O)c1OC(C)=O [Compound 47],> 80%,> 80%,> 80%,> 80%,–,–,–
COc1ccnc(C(=O)N[C@H]2CCOC[C@H](OC)[C@@H](Oc3ccccc3)[C@H](C)OC2=O)c1OC(C)=O [Compound 48],> 80%,> 80%,> 80%,> 80%,–,–,–
CC(=O)OCOc1cccnc1C(=O)N[C@H]1CCCC[C@H](CC2CCCC2)[C@@H](Oc2ccccc2)[C@H](C)OC1=O [Compound 49],< 80%,–,> 80%,< 80%,< 80%,< 80%,> 80%
COc1ccnc(C(=O)N[C@H]2CCCC[C@H](CC3CCCC3)[C@@H](Oc3ccccc3)[C@H](C)OC2=O)c1OCOC(C)=O [Compound 50],> 80%,< 80%,> 80%,> 80%,–,–,–
"CCOCC(=O)OCOc1c(OC)ccnc1C(=O)N[C@H]1CCCC[C@H](CC2CCCC2)[C@@H](Oc2ccccc2)[C@H](C)OC1=O [Compound 51, ((2-(((3S,8R,9R,10S)-8-(cyclopentylmethyl)-10-methyl-2-oxo-9-phenoxyoxecan-3-yl)carbamoyl)-4-methoxypyridin-3-yl)oxy)methyl 2-ethoxyacetate]",> 80%,–,> 80%,< 80%,–,–,–
COc1ccnc(C(=O)N[C@H]2CCCC[C@H](CC3CCCC3)[C@@H](Oc3ccccc3)[C@H](C)OC2=O)c1OC(C)=O [Compound 52],> 80%,–,> 80%,< 80%,–,–,–
C=CCO[C@@H]1[C@@H](CC2CCCC2)CCCC[C@H](NC(=O)c2nccc(OC)c2OCOC(C)=O)C(=O)O[C@H]1C [Compound 53],–,< 80%,< 80%,–,–,–,–
COc1ccnc(C(=O)N[C@H]2CCCC[C@H](CC3CCCC3)[C@@H](OC(=O)C(C)C)[C@H](C)OC2=O)c1OCOC(C)=O [Compound 54],> 80%,–,> 80%,< 80%,–,–,–
CCOCC(=O)OCOc1c(OC)ccnc1C(=O)N[C@H]1CCCC[C@H](CC2CCCC2)[C@@H](OC(=O)C(C)C)[C@H](C)OC1=O [Compound 55],< 80%,< 80%,> 80%,< 80%,–,–,–
"COc1ccnc(C(=O)N[C@H]2CCCC[C@H](CC3CCCC3)[C@@H](OC(=O)C(C)C)[C@H](C)OC2=O)c1OC(C)=O [Compound 56, (2S,3R,4R,9S)-9-(3-acetoxy-4-methoxypicolinamido)-4-(cyclopentylmethyl)-2-methyl-10-oxooxecan-3-yl isobutyrate]",> 80%,< 80%,> 80%,< 80%,–,–,–
CCCO[C@@H]1[C@@H](CC2CCCC2)CCCC[C@H](NC(=O)c2nccc(OC)c2OCOC(C)=O)C(=O)O[C@H]1C [Compound 57],< 80%,–,> 80%,< 80%,–,–,–
CCCO[C@@H]1[C@@H](CC2CCCC2)CCCC[C@H](NC(=O)c2nccc(OC)c2OC(C)=O)C(=O)O[C@H]1C [Compound 58],< 80%,< 80%,> 80%,< 80%,–,–,–

# From US20180002319A1, “MACROCYCLIC PICOLINAMIDE COMPOUNDS WITH FUNGICIDAL ACTIVITY” (DOW AGROSCIENCES LLC, priority 2014, published 2018)
